These results are taken from US20250011368A1, “DLL3 TARGETING PEPTIDES AND CONSTRUCTS THEREOF” (MARIANA ONCOLOGY INC., priority 2023, published 2025).

Numbered stars: 1 amine (or outer) side, 2 acyl side, 3 side chain; on linkers, the order of the positions; unused ones are H or OH. Bridge positions count the residues as written; N and C are the ends. Square brackets hold non-standard residues; d marks the D form. Side chains are listed from the residue outwards. Peptide text beside a SMILES is read from it. * marks the point of attachment. X1 = O=C(O)CN1CCN(CC(=O)O)CCN(CC(=O)NCCCC[C@@H](NC(=O)CCOCCOCCOCCOCCOCCOCCOCCOCCOCCOCCOCCOCCNC(=O)Cc2ccc(Br)cc2)C(=O)NCCOCCOCCOCCOCCOCCOCCOCCOCC(=O)*)CCN(CC(=O)O)CC1; Ala(piperidin-4-yl) = O=C([C@H](CC1CCN([*:3])CC1)N[*:1])[*:2]; DOTA = O=C(O)CN1CCN(CC(=O)O)CCN(CC(=O)*)CCN(CC(=O)O)CC1; 2Nal = N[C@@H](Cc1ccc2ccccc2c1)C(=O)O; 3Pal = N[C@@H](Cc1cccnc1)C(=O)O; 4Pal = N[C@@H](Cc1ccncc1)C(=O)O; Chg = N[C@H](C(=O)O)C1CCCCC1; Ahx = NCCCCCC(=O)O Where only a bound is given, the exact number is not on record here.

The target in one series is T1, human DLL3 (Homo sapiens, UniProt Q9NYJ7).
T1 sequence (Q9NYJ7 27-618): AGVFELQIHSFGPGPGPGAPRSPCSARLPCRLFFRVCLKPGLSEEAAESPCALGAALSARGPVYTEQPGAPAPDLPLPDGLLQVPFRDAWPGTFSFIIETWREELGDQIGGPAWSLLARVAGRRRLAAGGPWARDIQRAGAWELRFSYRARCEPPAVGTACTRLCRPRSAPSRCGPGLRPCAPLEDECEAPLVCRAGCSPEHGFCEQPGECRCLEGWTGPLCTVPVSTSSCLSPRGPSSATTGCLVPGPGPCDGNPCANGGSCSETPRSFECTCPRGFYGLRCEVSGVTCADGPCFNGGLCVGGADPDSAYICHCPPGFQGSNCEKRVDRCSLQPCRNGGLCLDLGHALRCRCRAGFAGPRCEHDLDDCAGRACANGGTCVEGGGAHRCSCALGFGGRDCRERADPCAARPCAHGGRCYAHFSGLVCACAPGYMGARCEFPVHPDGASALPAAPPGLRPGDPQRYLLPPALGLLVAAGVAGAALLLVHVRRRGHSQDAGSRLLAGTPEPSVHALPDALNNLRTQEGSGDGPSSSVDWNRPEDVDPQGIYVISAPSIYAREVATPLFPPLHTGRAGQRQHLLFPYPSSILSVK
Kind of series: Affinity determination by Surface Plasmon Resonance (SPR). Type of series: binding. The settings on record: 25° C., biotinylated human DLL3 immobilized on streptavidin sensor chip, 1:1 binding model; read-out: SPR KD. The procedure, abridged:
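Kinetic and affinity constants were derived by fitting sensorgrams to a 1:1 binding model. Graded compound concentrations flowed at 100 μL/minute in 20 mM phosphate running buffer with 2% DMSO over streptavidin-immobilized biotinylated human DLL3, reference-subtracted.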

The next series relates to SHP-77 tumors. Kind of series: Ex vivo biodistribution of radiolabeled peptides in nude mice bearing SHP-77 tumors. The settings on record: [177Lu]Lu labelling, nude mice bearing SHP-77 tumors (n = 3), 24 hours post-injection. On the procedure:
Mice were intravenously injected (via the lateral tail vein) with a bolus dose of the radiolabeled peptides for ex vivo biodistribution studies when tumor volumes were in range of 200-400 mm^3 for xenograft mice and when age of the mice was 5-7 weeks for tumor naïve mice studies. To assess the amount of radionuclide injected into individual mice the syringe was assayed in a dose calibrator before and after injection for [^177Lu]Lu-peptide.
Mice were euthanized at pre-determined time points and selected tissues were resected and collected into pre-weighed tubes. The tubes were then reweighed post resection, the difference giving the weight of each tissue. Radioactivity in each tissue was measured using a gamma counter. Counts were decay corrected to the time of injection and percentage of injected activity per gram (% IA/g) was calculated for each tissue based on the injected activity into each individual mouse. Injected activity was converted to counts based on the sensitivity of the gamma counter. The counts in tissue were then converted to the percentage of injected activity and this was divided by the mass of tissue to give % IA/g.

The test system of another series is CT26.DLL3 cells. In words: Cell binding (total uptake) of [177Lu]Lu-test peptide, CT26.DLL3 cells. The class given is cell-based. The settings on record: 1 hour at 37° C. How it is done: [^177Lu]LuCl3 was received from venders in HCl solution. For every mCi of [^177Lu]LuCl3 added to the reaction vial (1.5 mL Eppendorf vial), ammonium acetate buffer (0.2 M, pH 4.9, 100 μL, containing 1% w/v ascorbic acid and 6% v/v ethanol) and peptide conjugate (1 nmol). A peptide conjugate of the present disclosure is also referred to herein as a “chelator-peptide”. The pH of the solution was determined to be approximately 5 by using pH strips. The reaction vial was incubated at 80° C., 700 RPM for 17-20 minutes. A sample from the reaction was analyzed by RP-HPLC using an Agilent Infinity II 1260 HPLC to determine reaction completion and radiochemical purity of [^177Lu]Lu-chelator-peptide. HPLC conditions: Waters XBridge BEH C18 Column, 130 Å, 3.5 um, 4.6 mm×250 mm; mobile phase: Solvent A=water (with 0.1% formic acid), solvent B=acetonitrile (with 0.1% formic acid). Gradients: 25-45% B in 10 minutes, 45-65% B in 12 minutes, 65-90% in 6 minutes at a flow rate of 0.5 mL/minute. Required amounts of the product was formulated in 1% PBSA for cell studies.
The study was conducted using SHP-77, CT26.WT, and CT26.DLL3 cells (Table 7) Adherent cell studies: The cells were cultured in appropriate culture media (20 mL) in tissue culture treated T150 flasks at 37° C. and 5% CO2. Adherent cells were detached (60-70% confluent) using 5 mL Versene at 37° C. for 3 minutes. After confirming the viability using countess and count of detached cells using Trypan blue, the cells were centrifuged at 4° C. for 5 minutes (1,000 rpm). The cell pellet obtained was washed once with PBS and resuspended in 1% PBSA to obtain the desired cell concentration (5-25 million cells/mL).
Cell numbers used for the assay were in the range of 5 million cells/condition −25 million cells/condition.
Total uptake: Cells were incubated with 300 μL (0.8 μCi) of the incubation buffer (containing radiolabeled peptide [^177Lu] Lu-test peptide) for 1 hour at 37° C. (Table 8). Post incubation, the cells were pelleted and washed 2 times using cold PBS+1% BSA. The supernatant and washes were combined and counted together as “unbound fraction” in a gamma counter. The cells were then resuspended in 300 μL of 1% PBS+1% BSA and counted in the gamma counter as “bound fraction”.
In these Tables, “A” represents %≤25; “B” represents 25<%≤50; “C” represents %>50.

In general, Kd refers to the constant that tells how readily two partners part at equilibrium. With `CC(=O)N[C@@H](Cc1c[nH]c2ccccc12)C(=O)N[C@H](C(=O)N[C@H](C(=O)N[C@H]1CSSC[C@@H](C(=O)N[C@@H](Cc2c[nH]c3ccccc23)C(=O)N2CCC[C@H]2C(=O)N[C@H](CCCCNC(=O)CN2CCN(CC(=O)O)CCN(CC(=O)O)CCN(CC(=O)O)CC2)C(N)=O)NC(=O)[C@H](CC(=O)O)NC(=O)[C@H](Cc2cnc[nH]2)NC(=O)[C@H](Cc2ccc3ccccc3c2)NC(=O)[C@H](CC(N)=O)NC(=O)[C@H](CC2CCNCC2)NC1=O)C1CCCCC1)[C@@H](C)O` [compound 280, Ac-W-T-(Chg)-C(3)-[3-(4-piperidinyl)-Ala]-N-(2Nal)-H-D-C(3)-W-P-[D-Lys(DOTA)]-NH2] (Ac-WT[Chg]C[Ala(piperidin-4-yl)]N[2Nal]HDCWP[dK](DOTA)-NH2; disulfide 4-10), the Kd at human DLL3 is under 1 nM. In addition, in the series with SHP-77 tumors, the “kidney uptake (% IA/g)” value is recorded as “C (0 < % IA/g ≤ 10 in kidney)” and the “tumor uptake (% IA/g)” value is “A (0 < % IA/g ≤ 5 in tumor)”.
As for `CC[C@H](C)[C@H](NC(=O)[C@@H](NC(=O)[C@H](Cc1c[nH]c2ccccc12)NC(C)=O)[C@@H](C)O)C(=O)N[C@H]1CSSC[C@@H](C(=O)N[C@@H](Cc2c[nH]c3ccccc23)C(=O)N2CCC[C@H]2C(=O)N[C@H](CCCCNC(=O)CN2CCN(CC(=O)O)CCN(CC(=O)O)CCN(CC(=O)O)CC2)C(N)=O)NC(=O)[C@H](CC(=O)O)NC(=O)[C@H](Cc2cnc[nH]2)NC(=O)[C@H](Cc2ccc3ccccc3c2)NC(=O)[C@H](CC(N)=O)NC(=O)[C@H](CCCCN)NC1=O` [compound 451, Ac-W-T-I-C(3)-K-N-(2Nal)-H-D-C(3)-W-P-[D-Lys(DOTA)]-CONH2] (Ac-WTICKN[2Nal]HDCWP[dK](DOTA)-NH2; disulfide 4-10), in the series on SHP-77 tumors, the “kidney uptake (% IA/g)” value is listed as “D (% IA/g > 10 in kidney)” and the “tumor uptake (% IA/g)” value is listed as “A (0 < % IA/g ≤ 5 in tumor)”.
Take `CC[C@H](C)[C@H](NC(=O)[C@@H](NC(=O)[C@H](Cc1c[nH]c2ccccc12)NC(C)=O)[C@@H](C)O)C(=O)N[C@H]1CSSC[C@@H](C(=O)N[C@@H](Cc2c[nH]c3ccccc23)C(=O)N2CCC[C@H]2C(=O)N[C@H](CCCCNC(=O)CCCCCNC(=O)CN2CCN(CC(=O)O)CCN(CC(=O)O)CCN(CC(=O)O)CC2)C(N)=O)NC(=O)[C@H](CC(=O)O)NC(=O)[C@H](Cc2cnc[nH]2)NC(=O)[C@H](Cc2c[nH]c3ccccc23)NC(=O)[C@H](CC(N)=O)NC(=O)[C@H](CC(N)=O)NC1=O` [compound 47, Ac-W-T-I-C(3)-N-N-W-H-D-C(3)-W-P-(D-Lys)-Ahx-DOTA-NH2] (Ac-WTICNNWHDCWP[dK]([Ahx-DOTA])-NH2; disulfide 4-10): the Kd on human DLL3 was 1 to 10 nM. Also, in the series on SHP-77 tumors, the “kidney uptake (% IA/g)” value is “D (% IA/g > 10 in kidney)” and the “tumor uptake (% IA/g)” value is “A (0 < % IA/g ≤ 5 in tumor)”.
Regarding `CC[C@H](C)[C@H](NC(=O)[C@@H](NC(=O)[C@H](Cc1c[nH]c2ccccc12)NC(C)=O)[C@@H](C)O)C(=O)N[C@H]1CSSC[C@@H](C(=O)N[C@@H](Cc2c[nH]c3ccccc23)C(=O)N2CCC[C@H]2C(=O)N[C@H](CCCCNC(=O)CN2CCN(CC(=O)O)CCN(CC(=O)O)CCN(CC(=O)O)CC2)C(N)=O)NC(=O)[C@H](CC(=O)O)NC(=O)[C@H](Cc2cnc[nH]2)NC(=O)[C@H](Cc2ccc3ccccc3c2)NC(=O)[C@H](Cc2cccnc2)NC(=O)[C@H](CC(N)=O)NC1=O` [compound 265, Ac-W-T-I-C(3)-N-(3Pya)-(2Nal)-H-D-C(3)-W-P-[D-Lys(DOTA)]-NH2] (Ac-WTICN[3Pal][2Nal]HDCWP[dK](DOTA)-NH2; disulfide 4-10), at human DLL3, the Kd was under 1 nM. In the series on SHP-77 tumors, the “kidney uptake (% IA/g)” value is “D (% IA/g > 10 in kidney)” and the “tumor uptake (% IA/g)” value is listed as “A (0 < % IA/g ≤ 5 in tumor)”.
On to `CC[C@H](C)[C@H](NC(=O)[C@@H](NC(=O)[C@H](Cc1c[nH]c2ccccc12)NC(C)=O)[C@@H](C)O)C(=O)N[C@H]1CSSC[C@@H](C(=O)N[C@@H](Cc2c[nH]c3ccccc23)C(=O)N2CCC[C@H]2C(=O)N[C@H](CCCCNC(=O)CN2CCN(CC(=O)O)CCN(CC(=O)O)CCN(CC(=O)O)CC2)C(N)=O)NC(=O)[C@H](CC(=O)O)NC(=O)[C@H](Cc2cnc[nH]2)NC(=O)[C@H](Cc2ccc3ccccc3c2)NC(=O)[C@H](CC(N)=O)NC(=O)[C@H](CCCCN)NC1=O` [compound 259] (Ac-WTICKN[2Nal]HDCWP[dK](DOTA)-NH2; disulfide 4-10), for which, in the series on CT26.DLL3 cells, the “% Binding” value was “B (25<%≤50)”. The Kd on human DLL3 is under 1 nM.
As to `CC[C@H](C)[C@H](NC(=O)[C@@H](NC(=O)[C@H](Cc1c[nH]c2ccccc12)NC(C)=O)[C@@H](C)O)C(=O)N[C@H]1CSSC[C@@H](C(=O)N[C@@H](Cc2c[nH]c3ccccc23)C(=O)N2CCC[C@H]2C(=O)N[C@H](CCCCNC(=O)COCCOCCOCCOCCOCCOCCOCCOCCNC(=O)[C@@H](CCCCNC(=O)CN2CCN(CC(=O)O)CCN(CC(=O)O)CCN(CC(=O)O)CC2)NC(=O)CCOCCOCCOCCOCCOCCOCCOCCOCCOCCOCCOCCOCCNC(=O)Cc2ccc(Br)cc2)C(N)=O)NC(=O)[C@H](CC(=O)O)NC(=O)[C@H](Cc2c[nH]cn2)NC(=O)[C@H](Cc2ccc3ccccc3c2)NC(=O)[C@H](CC(N)=O)NC(=O)[C@H](CC(N)=O)NC1=O` [compound 252, Ac-W-T-I-C(3)-N-N-(2Nal)-H-D-C(3)-W-P-{D-Lys[PEG8-D-Lys(DOTA)-PEG12-COCH2Ph-4Br]}-NH2] (Ac-WTICNN[2Nal]HDCWP[dK](X1)-NH2; disulfide 4-10), in the series on SHP-77 tumors, the “kidney uptake (% IA/g)” value is reported as “D (% IA/g > 10 in kidney)” and the “tumor uptake (% IA/g)” value was “A (0 < % IA/g ≤ 5 in tumor)”.
Consider `CC(=O)N[C@@H](Cc1c[nH]c2ccccc12)C(=O)N[C@H](C(=O)N[C@H](C(=O)N[C@H]1CSSC[C@@H](C(=O)N[C@@H](Cc2c[nH]c3ccccc23)C(=O)N2CCC[C@H]2C(=O)N[C@H](CCCCNC(=O)CN2CCN(CC(=O)O)CCN(CC(=O)O)CCN(CC(=O)O)CC2)C(N)=O)NC(=O)[C@H](CC(=O)O)NC(=O)[C@H](Cc2cnc[nH]2)NC(=O)[C@H](Cc2ccc3ccccc3c2)NC(=O)[C@H](CC(N)=O)NC(=O)[C@H](Cc2ccncc2)NC1=O)C1CCCCC1)[C@@H](C)O` [compound 290, Ac-W-T-(Chg)-C(3)-(4Pya)-N-(2Nal)-H-D-C(3)-W-P-[D-Lys(DOTA)]-NH2] (Ac-WT[Chg]C[4Pal]N[2Nal]HDCWP[dK](DOTA)-NH2; disulfide 4-10), for which the Kd on human DLL3 is under 1 nM.
